Source: US20030229053A1, “Compounds and methods for the treatment or prevention of flavivirus infections” (Shire BioChem Inc., priority 2001, published 2003)

The compounds below were run against HCV NS5B RNA-dependent RNA polymerase (Hepatitis C virus genotype 1b, UniProt P26663) (assay: In vitro RNA-dependent RNA polymerase assay (Assay 1), polyA/oligo dT, TCA precipitation). Conditions: not given.
Assay type: biochemical
Procedure: Purification of Recombinant NS5B Using Fast Protein Liquid Chromatography (FPLC):
Soluble NS5B protein in the S3 fraction was diluted to lower the NaCl concentration to 300 mM, then it incubated batchwise with DEAE sepharose beads (Amersham-Pharmacia) for 2 hrs at 4° C., as described by Behrens et al. (1996). Unbound material was cleared by centrifugation for 15 min at 4° C., at 25,000 rpm using a SW41 rotor (Beckman). The supernatant was further diluted to lower the NaCl concentration to 200 mM and subsequently loaded, with a flow rate of 1 ml/min, on a 5 ml HiTrap® heparin column (Amersham-Pharmacia) connected to an FPLC® system (Amersham-Pharmacia). Bound proteins were eluted in 1 ml fractions, using a continuous NaCl gradient of 0.2 to 1 M, over a 25 ml volume. NS5B-containing fractions were identified by sodium dodecyl sulfate polyacrylamide gel electrophoresis (SDS-PAGE), followed by western blotting using the anti-NS5B antiserum at a dilution of 1:2000. Positive fractions were pooled and the elution buffer was exchanged against a 50 mM NaPO4 pH 7.0, 20% glycerol, 0.5% triton X-100 and 10 mM DTT, using a PD-10 column (Amersham-Pharmacia). The sample was then loaded onto a 1 ml HiTrap® SP column (Amersham-Pharmacia), with a flow rate of 0.1 ml/min. Bound proteins were eluted using a continuous 0 to 1 M NaCl gradient over a 15 ml volume. Eluted fractions were analyzed by SDS-PAGE and western blotting. Alternatively, proteins were visualized, following SDS-PAGE, by silver staining using the Silver Stain Plus kit (BioRad) as described by the manufacturer. […]
In vitro RNA-dependent RNA Polymerase Assays Used to Evaluate Biaryl Analogues (Assay 1):
RdRp assays were conducted using the homopolymeric template/primer polyA/oligo dT. All RdRp reactions were performed in a total volume of 50 μl, and in a basic buffer consisting of 20 mM Tris-HCl pH 7.5, 1 mM DTT, 50 mM NaCl, 5 mM MgCl2, 0.5 μCi […] (3000 Ci/mmol), 15 μM cold UTP and 20 U RNasin (Promega). Standard HCV RdRp reactions contained 200 ng of purified NS5B protein. PolyA RNAs (Amersham-Pharmacia) was resuspended at 400 ng/μl. The primer oligodT15 (Canadian life technologies) was diluted to a concentration of […] (7.6 ng/μl). Templates and primers were mixed volume to volume, denatured at 95° C. for 5 min and annealed at 37° C. for 10 min. Following a two hour incubation at 22° C., reactions were stopped by the addition of 100 μg of sonicated salmon sperm DNA (Life Technologies) and 1 ml of 10% trichloroacetic acid-0.5% tetrasodium pyrophosphate (TCA-PPi). Nucleic acids were precipitated at 4° C. for 30 min after which samples were filtered on GF/C glass microfiber filters (Millipore). Membranes were subsequently washed with 25 ml of a 1% TCA-0.1% PPi solution, then air dried. Incorporated radioactivity was quantified using a liquid scintillation counter (1450-Microbeta, Wallac). Results are shown in Table 1, in the column indicated as Assay 1.

Sequence of HCV NS5B RNA-dependent RNA polymerase (P26663 2420-3010 limits assumed): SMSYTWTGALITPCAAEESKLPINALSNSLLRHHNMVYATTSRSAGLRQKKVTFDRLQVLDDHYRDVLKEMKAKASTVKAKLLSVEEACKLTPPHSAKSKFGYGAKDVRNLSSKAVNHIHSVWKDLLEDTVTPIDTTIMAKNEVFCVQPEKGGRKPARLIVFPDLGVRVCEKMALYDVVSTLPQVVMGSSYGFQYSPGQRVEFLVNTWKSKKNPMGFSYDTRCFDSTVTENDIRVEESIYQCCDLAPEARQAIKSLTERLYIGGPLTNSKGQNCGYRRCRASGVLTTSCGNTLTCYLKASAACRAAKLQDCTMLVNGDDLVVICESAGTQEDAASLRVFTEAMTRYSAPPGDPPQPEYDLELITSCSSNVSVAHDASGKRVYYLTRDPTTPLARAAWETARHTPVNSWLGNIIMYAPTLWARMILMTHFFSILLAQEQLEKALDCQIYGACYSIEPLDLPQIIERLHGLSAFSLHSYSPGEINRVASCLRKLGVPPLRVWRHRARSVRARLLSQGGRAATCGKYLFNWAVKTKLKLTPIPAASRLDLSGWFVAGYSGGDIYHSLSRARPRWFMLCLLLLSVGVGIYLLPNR

O=C(O)[C@H](Cc1ccccc1)N(Cc1ccc(Br)s1)C(=O)c1ccc(Cl)cc1Cl [compound #82, (2s)-2-[(5-Bromo-thiophen-2-ylmethyl)-(2,4-dichloro-benzoyl)-amino]-3-phenyl-propionic acid] and O=C(O)[C@H](Cc1ccccc1)N(Cc1ccc(-c2cc3ccccc3o2)s1)C(=O)c1ccc(Cl)cc1Cl [compound #85, (2s)-2-[(5-Benzofuran-2-yl-thiophen-2-ylmethyl)-(2,4-dichloro-benzoyl)-amino]-3-phenyl-propionic acid] cannot be ordered by IC50: < 5 µM for the first, < 5 µM for the second.

Same assay, conditions: polyA/oligo dT template/primer, 200 ng NS5B, 2 h at 22° C.; read-out: RNA pol Assay 1 IC50 (μm)

O=C(O)[C@H](Cc1ccccc1)N(Cc1ccc(-c2cc(C(F)(F)F)ccc2Cl)o1)C(=O)c1ccc(Cl)cc1Cl [compound #61, (2s)-2-[[5-(2-Chloro-5-trifluoromethyl-phenyl)-furan-2-ylmethyl]-(2,4-dichloro-benzoyl)-amino]-3-phenyl-propionic acid] and O=C(O)[C@H](Cc1ccccc1)N(Cc1ccc(-c2ccc(Cl)cc2Cl)o1)C(=O)c1ccc(Cl)cc1Cl [compound #67, (2s)-2-{(2,4-Dichloro-benzoyl)-[5-(2,4-dichloro-phenyl)-furan-2-ylmethyl]-amino}-3-phenyl-propionic acid] cannot be ordered by IC50: < 5 µM for the first, < 5 µM for the second.

O=C(O)[C@H](Cc1ccccc1)N(Cc1ccc(-c2ccccc2[N+](=O)[O-])o1)C(=O)c1ccc(Cl)cc1Cl [compound #62, (2s)-2-{(2,4-Dichloro-benzoyl)-[5-(2-nitro-phenyl)-furan-2-ylmethyl]-amino}-3-phenyl-propionic acid] and O=C(O)c1ccccc1-c1ccc(CN(C(=O)c2ccc(Cl)cc2Cl)[C@@H](Cc2ccccc2)C(=O)O)o1 [compound #73, (2s)-2-(5-{[(1-Carboxy-2-phenyl-ethyl)-(2,4-dichloro-benzoyl)-amino]-methyl}-furan-2-yl)-benzoic acid] cannot be ordered by IC50: < 5 µM for the first, < 5 µM for the second.

O=C(O)C[C@H](Cc1ccccc1)N(Cc1ccc(-c2cccc(C(F)(F)F)c2)o1)C(=O)c1ccc(Cl)cc1Cl [compound #63, (3s)-3-{(2,4-Dichloro-benzoyl)-[5-(3-trifluoromethyl-phenyl)-furan-2-ylmethyl]-amino}-4-phenyl-butyric acid] and O=C(O)[C@H](Cc1ccccc1)N(Cc1ccc(-c2cccc(C(F)(F)F)c2)o1)C(=O)c1ccc(Cl)cc1Br [compound #78, (2s)-2-{(2-Bromo-4-chloro-benzoyl)-[5-(3-trifluoromethyl-phenyl)-furan-2-ylmethyl]-amino}-3-phenyl-propionic acid] cannot be ordered by IC50: < 5 µM for the first, < 5 µM for the second.

O=C(O)[C@H](Cc1ccccc1)N(Cc1ccc(-c2ccc(Cl)c(Cl)c2)o1)C(=O)c1ccc(Cl)cc1Cl [compound #65, (2s)-2-{(2,4-Dichloro-benzoyl)-[5-(3,4-dichloro-phenyl)-furan-2-ylmethyl]-amino}-3-phenyl-propionic acid] and O=C(O)[C@H](Cc1ccccc1)N(Cc1ccc(-c2ccc(F)c(Cl)c2)o1)C(=O)c1ccc(Cl)cc1Cl [compound #69, (2s)-2-[[5-(3-Chloro-4-fluoro-phenyl)-furan-2-ylmethyl]-(2,4-dichloro-benzoyl)-amino]-3-phenyl-propionic acid] cannot be ordered by IC50: < 5 µM for the first, < 5 µM for the second.

O=C(O)[C@H](Cc1ccccc1)N(Cc1ccc(Br)o1)C(=O)c1ccc(Cl)cc1Br [compound #68, (2s)-2-[(2-Bromo-4-chloro-benzoyl)-(5-bromo-furan-2-ylmethyl)-amino]-3-phenyl-propionic acid] and O=C(O)[C@H](Cc1ccccc1)N(Cc1ccc(Br)o1)C(=O)c1ccc(Cl)cc1I [compound #71, (2s)-2-[(5-Bromo-furan-2-ylmethyl)-(4-chloro-2-iodo-benzoyl)-amino]-3-phenyl-propionic acid] cannot be ordered by IC50: < 5 µM for the first, < 5 µM for the second.

O=C(O)[C@H](Cc1ccccc1)N(Cc1ccc(-c2ccc(Cl)c(F)c2)o1)C(=O)c1ccc(Cl)cc1Cl [compound #70, (2s)-2-[[5-(4-Chloro-3-fluoro-phenyl)-furan-2-ylmethyl]-(2,4-dichloro-benzoyl)-amino]-3-phenyl-propionic acid] and O=C(O)[C@H](Cc1ccccc1)N(Cc1ccc(-c2cccc(F)c2)o1)C(=O)c1ccc(Cl)cc1Cl [compound #81, (2s)-2-{(2,4-Dichloro-benzoyl)-[5-(3-fluoro-phenyl)-furan-2-ylmethyl]-amino}-3-phenyl-propionic acid] cannot be ordered by IC50: < 5 µM for the first, < 5 µM for the second.

CCOC(=O)c1ccccc1-c1ccc(CN(C(=O)c2ccc(Cl)cc2Cl)[C@@H](Cc2ccccc2)C(=O)O)o1 [compound #72, (2s)-2-(5-{[(1s-1-Carboxy-2-phenyl-ethyl)-(2,4-dichloro-benzoyl)-amino]-methyl}-furan-2-yl)-benzoic acid ethyl ester] and Cc1cccc(-c2ccc(CN(C(=O)c3ccc(Cl)cc3Cl)[C@@H](Cc3ccccc3)C(=O)O)o2)c1 [compound #80, (2s)-2-[(2,4-Dichloro-benzoyl)-(5-m-tolyl-furan-2-ylmethyl)-amino]-3-phenyl-propionic acid] cannot be ordered by IC50: < 5 µM for the first, < 5 µM for the second.

O=C(O)[C@H](Cc1ccccc1)N(Cc1ccc(-c2nccs2)o1)C(=O)c1ccc(Cl)cc1Cl [compound #74, (2s)-2-[(2,4-Dichloro-benzoyl)-(5-thiazol-2-yl-furan-2-ylmethyl)-amino]-3-phenyl-propionic acid] and O=C(O)[C@H](Cc1ccccc1)N(Cc1ccc(-c2cc(F)cc(F)c2)o1)C(=O)c1ccc(Cl)cc1Cl [compound #79, (2s)-2-{(2,4-Dichloro-benzoyl)-[5-(3,5-difluoro-phenyl)-furan-2-ylmethyl]-amino}-3-phenyl-propionic acid] cannot be ordered by IC50: < 5 µM for the first, < 5 µM for the second.

Compared with O=C(O)[C@H](Cc1ccccc1)N(Cc1ccco1)C(=O)c1ccc(Cl)cc1Cl [compound #75, (2s)-2-[(2,4-Dichloro-benzoyl)-furan-2-ylmethyl-amino]-3-phenyl-propionic acid], O=C(O)c1cccc(-c2ccc(CN(C(=O)c3ccc(Cl)cc3Cl)[C@@H](Cc3ccccc3)C(=O)O)o2)c1 [compound #76, (2s)-3-(5-{[(1s-1-Carboxy-2-phenyl-ethyl)-(2,4-dichloro-benzoyl)-amino]-methyl}-furan-2-yl)-benzoic acid] is lower in IC50: 5 to 20 µM for the first, < 5 µM for the second.

O=C(O)c1ccc(-c2ccc(CN(C(=O)c3ccc(Cl)cc3Cl)[C@@H](Cc3ccccc3)C(=O)O)o2)cc1 [compound #77, (2s)-4-(5-{[(1s-1-Carboxy-2-phenyl-ethyl)-(2,4-dichloro-benzoyl)-amino]-methyl}-furan-2-yl)-benzoic acid] and O=C(O)c1ccc(-c2ccc(CN(C(=O)c3ccc(Cl)cc3Cl)[C@@H](Cc3ccccc3)C(=O)O)s2)cc1 [compound #83, (2s)-4-(5-{[(1s-1-Carboxy-2-phenyl-ethyl)-(2,4-dichloro-benzoyl)-amino]-methyl}-thiophen-2-yl)-benzoic acid] cannot be ordered by IC50: < 5 µM for the first, < 5 µM for the second.

COC(=O)c1ccc(-c2ccc(CN(C(=O)c3ccc(Cl)cc3Cl)[C@@H](Cc3ccccc3)C(=O)O)s2)cc1 [compound #84, (2s)-4-(5-{[(1-Carboxy-2-phenyl-ethyl)-(2,4-dichloro-benzoyl)-amino]-methyl}-thiophen-2-yl)-benzoic acid methyl ester] and O=C(O)[C@H](Cc1ccccc1)N(Cc1cc(-c2ccc(Cl)c(Cl)c2)cs1)C(=O)c1ccc(Cl)cc1Cl [compound #87, (2s)-2-{(2,4-Dichloro-benzoyl)-[4-(3,4-dichloro-phenyl)-thiophen-2-ylmethyl]-amino}-3-phenyl-propionic acid] cannot be ordered by IC50: < 5 µM for the first, < 5 µM for the second.

O=C(O)[C@H](Cc1ccccc1)N(Cc1cc(-c2ccc(Cl)c(F)c2)cs1)C(=O)c1ccc(Cl)cc1Cl [compound #88, (2s)-2-[[4-(4-Chloro-3-fluoro-phenyl)-thiophen-2-ylmethyl]-(2,4-dichloro-benzoyl)-amino]-3-phenyl-propionic acid] and O=C(O)[C@H](Cc1ccccc1)N(Cc1cc(-c2ccc(F)c(Cl)c2)cs1)C(=O)c1ccc(Cl)cc1Cl [compound #89, (2s)-2-[[4-(3-Chloro-4-fluoro-phenyl)-thiophen-2-ylmethyl]-(2,4-dichloro-benzoyl)-amino]-3-phenyl-propionic acid] cannot be ordered by IC50: < 5 µM for the first, < 5 µM for the second.
